Columns and labels:
Type in all cases: physicochemical
[1] = Dissolution rate of NCX4016 under condition of supersaturation, paddle method, distilled water; conditions: after 5 minutes, from solid dispersion 2
Method: Three samples of microspheres have been exactly weighed so as to have a content of nitroaspirine of 30 mg. This quantity corresponds to about 4 times the solubility in water of the active principle.
The dissolution rate of the active principle from the above mentioned 3 solid dispersions has been compared with the dissolution rate of the pure active principle in micronized form, with the paddle method, described in F.U.X. using the following conditions:
dissolution means: distilled water
stirring rate: 100 r.p.m.
The quantity of NCX 4016 released has been evaluated spectrophotometrically in continuous at a wavelength 232 nm.
The samples have been taken by means of a peristaltic pump at 5 minutes intervals and for the total time of one hour.

[2] = Dissolution rate of NCX4016, paddle method (F.U.X.), 1% sodium lauryl sulphate solution; conditions: 900 ml, 37° C., 150 rpm
Method: The dissolution rate of the solid dispersion produced in the example 3 has been compared with the dissolution rate of the pure NCX4016 in micronised form using the paddle method described in F.U.X., according to the following operating conditions T=37° C.±0.5° C., stirring rate: 150 rpm, dissolution means: 1% sodium lauryl sulphate solution, dissolution volume: 900 ml.
The quantity of NCX4016 released has been spectrophotometrically evaluated in continuous at a wavelength 232 nm.

[3] = Dissolution rate of NCX 1022, paddle method, distilled water with 1% w/v Tween 80; conditions: within one hour
Method: The dissolution rate of the active ingredient from the solid dispersion produced in Example 6 has been compared with the dissolution rate of the pure active ingredient, using the paddle method described in F.U.X. In detail, 40 mg of the solid dispersion or 5 mg of pure NCX 1022 have been placed in a thermostated container at 37° C.±0.5° C. in 500 ml of distilled water including 1% w/v of Tween 80 and kept under stirring at 100 rpm. The quantity of NCX 1022 dissolved has been spectrophotometrically determined in continuous at a wavelength of 240 nm.

solubilisation [3] [%] | Structure (SMILES) | quantity dissolved relative to the solubility of the active ingredient in the dissolution means [1] | percentage of active principle dissolved ([2]; 5 minutes) [%] | percentage of active principle dissolved ([2]; 10 minutes) [%] | percentage of active principle dissolved ([2]; 15 minutes) [%] | percentage of active principle dissolved ([2]; 20 minutes) [%] | percentage of active principle dissolved ([2]; 25 minutes) [%] | percentage of active principle dissolved ([2]; 30 minutes) [%] | percentage of active principle dissolved ([2]; 35 minutes) [%] | percentage of active principle dissolved ([2]; 40 minutes) [%] | percentage of active principle dissolved ([2]; 45 minutes) [%] | percentage of active principle dissolved ([2]; 50 minutes) [%] | percentage of active principle dissolved ([2]; 55 minutes) [%] | percentage of active principle dissolved ([2]; 60 minutes) [%]
– | CC(=O)Oc1ccccc1C(=O)Oc1cccc(CO[N+](=O)[O-])c1 [NCX4016 micronized, 3-(nitroxymethyl)phenyl Ester of 2-acetoxybenzoic Acid] | about twice | 17.9 | 39.2 | 53.5 | 60.7 | 71.4 | 77 | 80.9 | 84.4 | 87 | 88.9 | 90.6 | 91.4
4.3 | C[C@]12CCC(=O)C=C1CC[C@@H]1[C@@H]2[C@@H](O)C[C@@]2(C)[C@H]1CC[C@]2(O)C(=O)COC(=O)c1ccc(CO[N+](=O)[O-])cc1 [NCX 1022, hydroxycortisone 21-[(4′-nitroxymethyl)benzoate]] | – | – | – | – | – | – | – | – | – | – | – | – | –

From patent publication US20040071777A1, “Solid dispersions of nitrate active principles” (priority 2000, published 2004)
